Assay results published in US20260144807A1, “METHOD OF ADMINISTRATION OF A PARENTERAL FORMULATION COMPRISING A P[…]” (Cybin UK LTD, priority 2022, published 2026).

Assays:
healthy volunteers = details: single oral dose, interim analysis; cited from earlier work
[1] = test system: patients with major depressive disorder; assay: MADRS assessment, NCT04673383 Part B, IV infusion over about 10 minutes; type: in vivo, human; design: average percent reduction from baseline (MADRS) / Mean % reduction (MADRS): concentration or dose not given beside the values
Source text: Therapeutic benefit or efficacy may be assessed using a rating scale. For patients with a depressive disorder such as MDD or TRD, the Montgomery-Asberg Depression Rating Scale (MADRS), the Hamilton Depression Rating Scale (HAMD-17) or the Beck's Depression Inventory (BDI-II) may be used. The rating scale is used prior to administration of the psychedelic agent, to provide a baseline assessment, and again after administration of the psychedelic agent.
(§1) A double-blind, randomised, placebo-controlled study of intravenous doses of DMT fumarate, was carried out in patients with major depressive disorder, MDD, (ClinicalTrials.gov Identifier: NCT04673383, Part B). The protocol comprised the steps of:
• MADRS assessment by an independent assessor
(§2) • Administration of either a placebo or a dose of DMT fumarate by continuous intravenous infusion over a dosing period of about 10 minutes. • Tolerability assessment following cessation of the psychedelic experience. Study Day 8 (±1 day), Study Day 15 (±1 day) • MADRS assessment
• Administration of a dose of DMT fumarate by continuous intravenous infusion over a dosing period of about 10 minutes. • Tolerability assessment following cessation of the psychedelic experience. Study Day 22 (+1 day), Study Day 29 (+2 days), Day 45 (+2 days), Day 105 (+2 days) • MADRS assessment
(§3) The administration of the study drug, DMT fumarate, in NCT04673383, Part B was in accordance with the present invention. Group A received one dose of active (DMT fumarate) on Day 1 and were assessed using MADRS at Day 8 and Day 15. Group P received a placebo on Day 1, and were also assessed at Day 8 and Day 15. This comprised the blinded phase of the study. Group P subsequently received one dose of active in the open label phase of the study on Day 15 and were assessed at Day 22 and 29. Data from this group following administration of the active dose is represented as PA.
As described above, Group A received one dose of active (DMT fumarate) on Day 1 and were assessed at Day 8 and Day 15. Group P received a placebo on Day 1, and were also assessed at Day 8 and Day 15.

[2] = test system: patients with major depressive disorder; assay: Beck Depression Inventory (BDI), NCT04673383 Part B; type: in vivo, human
Experimental: as §1
(§4) • Administration of either a placebo or a dose of DMT fumarate by continuous intravenous infusion over a dosing period of about 10 minutes. • Tolerability assessment following cessation of the psychedelic experience. Study Day 8 (±1 day), Study Day 15 (±1 day) • MADRS assessment […]
as §3, with “This comprised the blinded phase of the study.” left out, “Data from this group following administration of the active dose is represented as PA.” left out
Analysis of patient-reported depression scores corroborated the MADRS assessments conducted by independent clinical raters. Improvements in depression scores from baseline were observed across all study timepoints in patients receiving at least one dose of active, as measured by the Beck Depression Inventory (“BDI”). […]

[3] = test system: patients with major depressive disorder; assay: State-Trait Anxiety Inventory-Trait (STAI-T), NCT04673383 Part B; type: in vivo, human
Experimental: as §1, §2
• Administration of a dose of DMT fumarate by continuous intravenous infusion over a dosing period of about 10 minutes. • Tolerability assessment following cessation of the psychedelic experience. […]
as §3, with “This comprised the blinded phase of the study.” left out, “Data from this group following administration of the active dose is represented as PA.” left out
Measures assessing patients' anxiety and wellbeing, areas which are often negatively impacted by depression, were also analysed across the study. […]

[4] = test system: patients with major depressive disorder; assay: Warwick-Edinburgh Mental Wellbeing Scale (WEMWBS), NCT04673383 Part B; type: in vivo, human
Experimental: as §1, §4
as §3, with “This comprised the blinded phase of the study.” left out, “Data from this group following administration of the active dose is represented as PA.” left out
Further, a rapid and sustained improvement in wellbeing was observed following administration of at least one dose of DMT fumarate in accordance with the invention, with supportive therapy, as measured by the Warwick-Edinburgh Mental Wellbeing Scale (“WEMWBS”).

healthy adults [5] = assay: Tolerability question after psychedelic experience, NCT04673383 Part A; type: in vivo, human; details: all healthy volunteers, highest doses tested
Source text: Tolerability may be assessed following cessation of the subjective psychedelic experience by asking the patent the question ‘Do you wish you had not gone through that experience?’ Yes responses are deemed to indicate poor tolerability, while No responses are deemed to indicate good tolerability.
All patient participants in this study, after receiving one dose of DMT fumarate, answered NO to the question ‘Do you wish you had not gone through that experience?’, indicating good tolerability of the psychedelic agent. In Part A of the same study, healthy adults received single escalating doses of DMT fumarate. All healthy volunteers answered “no” to the same question at the highest doses tested.

healthy adults [6] = assay: Challenging Experience Questionnaire (CEQ), NCT04673383 Part A; type: in vivo, human; details: active group, healthy participants
Source text: Garcia-Romeu and Richards (International review of Psychiatry, Vol. 30, 2018, issue 4, pp 291-316) discuss the use of serotonergic hallucinogens in clinical interventions and state ‘issues, such as recent suicidality, drug or alcohol use disorders, dissociative disorders, and past history of trauma should be taken into account depending on the therapeutic target, as these may be exacerbated by high-dose psychedelic administration or increase risk for adverse events. ‘They further state: Psychodynamic-autobiographical experiences are predominated by emotional recollections and reflections on significant previous or current life events and relationships. […] A patient's subjective experience may be evaluated by the Challenging Experience Questionnaire (CEQ), a questionnaire designed to measure challenging psychological experiences associated with a psychedelic experience. […]
The participant's experience was evaluated using the Challenging Experience Questionnaire (CEQ). In Part A of the study, a mean CEQ score of 0.172 was recorded for the active group, compared with a mean of 0.052 for the placebo group. […]

[7] = test system: patients with major depressive disorder; assay: Challenging Experience Questionnaire (CEQ), NCT04673383 Part B; type: in vivo, human
Source text: Garcia-Romeu and Richards (International review of Psychiatry, Vol. 30, 2018, issue 4, pp 291-316) discuss the use of serotonergic hallucinogens in clinical interventions and state ‘issues, such as recent suicidality, drug or alcohol use disorders, dissociative disorders, and past history of trauma should be taken into account depending on the therapeutic target, as these may be exacerbated by high-dose psychedelic administration or increase risk for adverse events. ‘They further state: Psychodynamic-autobiographical experiences are predominated by emotional recollections and reflections on significant previous or current life events and relationships. […] A patient's subjective experience may be evaluated by the Challenging Experience Questionnaire (CEQ), a questionnaire designed to measure challenging psychological experiences associated with a psychedelic experience.
as §3, with “This comprised the blinded phase of the study.” left out, “Data from this group following administration of the active dose is represented as PA.” left out

[8] = Drug related serious adverse events, NCT04673383; type: in vivo, human; details: reported at the date of filing
Experimental: A double-blind, randomised, placebo-controlled study of intravenous doses of DMT fumarate, was carried out in patients with major depressive disorder, MDD, (ClinicalTrials.gov Identifier: NCT04673383, Part B).

[9] = test system: patients with major depressive disorder; assay: D'Souza et al. HAMD-17 scores; type: in vivo, human; details: 1 day after final administration of 0.1 and 0.3 mg/kg doses
Experimental: D'Souza et al report an ‘exploratory study of the dose-related safety, tolerability, and efficacy of dimethyltryptamine (DMT) in healthy volunteers and major depressive disorder’ (D. C. D'Souza, S. A. Syed, L. T. Flynn, H. Safi-Aghdam, N. V. Cozzi and M. Ranganathan, Neuropsychopharmacology (2022) 47:1854-1862). Seven patients with major depressive disorder received two doses of DMT hemifumarate (0.1 mg/kg, followed by 0.3 mg/kg) at least 48 hours apart. The participants were administered DMT by intravenous push over 30-60 seconds, i.e., a bolus injection.
D'Souza et al report that the mean change in HAMD-17 scores between baseline (7 subjects) and 1 day after final administration of both a 0.1 mg/kg and a 0.3 mg/kg dose (6 subjects) was −4.5 (Table S6). This improvement approximates to an improvement on the MADRS scale of −3.9.

healthy participants = assay: Perceived duration of the psychedelic experience; type: in vivo, human; details: 9 mg IV
Source text: The onset and cessation of the psychedelic experience may be assessed by the attending clinician, psychiatrist or therapist. ‘Duration of the psychedelic experience’ as used herein refers to the time from the start of the continuous parenteral administration to the cessation of the psychedelic experience. The duration of the psychedelic experience may vary between patients. The term ‘duration’ as used herein, encompasses the mean duration of the psychedelic experience.
The safety and tolerability of a single intravenous dose of a deuterated analogue of DMT is being investigated in healthy participants in an on-going clinical trial. The administration of the deuterated analogue of DMT is in accordance with the present invention. Tolerability is assessed post-psychedelic experience by the question ‘Do you wish you had not gone through that experience?’.
A 9 mg dose of the deuterated analogue was administered in accordance with the present invention to a cohort of 6 psychedelic-experienced healthy participants. Preliminary data were compared with pharmacokinetic data from Part A of NCT04673383, Cohort 1 (9 mg DMT fumarate).
IRVAS is a rating scale which measures the intensity of the psychedelic experience. Additionally, the perceived duration of the psychedelic experience was in the range 37-57 minutes for the deuterated analogue, compared with approximately 25 minutes for DMT.

[10] = test system: patients with major depressive disorder; details: baseline (7 subjects) vs 1 day after final administration of 0.1 mg/kg and 0.3 mg/kg doses (6 subjects); cited from earlier work
[11] = test system: healthy volunteer participants; details: all three healthy volunteers, 0.3 mg/kg, IV bolus; cited from earlier work
[12] = test system: 3 healthy volunteers and 6 patients; details: 0.3 mg/kg, IV bolus; cited from earlier work
[13] = Group PA, 2 weeks, study Day 29
[14] = day 8, blinded data for all patients (average of placebo and DMT fumarate patients)
[15] = Group PA, open label phase, Day 105

[2H]C([2H])([2H])N(C([2H])([2H])[2H])C([2H])([2H])C([2H])([2H])c1c[nH]c2cccc(O)c12 [CYB003]
average duration of peak effects (healthy volunteers): ≈ 2 hours | time to psychedelic effects (healthy volunteers): ≤ 15 min

CN(C)CCc1c[nH]c2ccccc12.O=C(O)/C=C/C(=O)O [DMT fumarate, N,N-dimethyltryptamine fumarate]
difference in mean change from baseline (MADRS) between Group A and Group P ([1]; Day 8, active vs placebo, p=0.002): −10.8 points | difference in mean change from baseline (MADRS) between Group A and Group P ([1]; Day 15, active vs placebo, p=0.02): −7.4 points | Mean change from baseline (MADRS) ([1]; Group A, 1 week from active dose, study Day 8): −12.7 | % of subjects with a MADRS score ≤ 10 ([1]; Group A, 1 week, study Day 8): 43.8% | % of subjects with ≥ 50% reduction from BL (MADRS) ([1]; Group A, 1 week, study Day 8): 43.8% | Mean % reduction (MADRS) ([1]; Group A, 1 week, study Day 8): −48.2% | Mean change from baseline (MADRS) ([1]; Group A, 2 weeks from active dose, study Day 15): −11.0 | % of subjects with a MADRS score ≤ 10 ([1]; Group A, 2 weeks, study Day 15): 29.4% | % of subjects with ≥ 50% reduction from BL (MADRS) ([1]; Group A, 2 weeks, study Day 15): 35.3% | Mean % reduction (MADRS) ([1]; Group A, 2 weeks, study Day 15): −41.0% | Mean change from baseline (MADRS) ([1]; Group PA (open label active after placebo), 1 week from active dose, study Day 22): −10.6 | % of subjects with a MADRS score ≤ 10 ([1]; Group PA, 1 week, study Day 22): 42.9% | % of subjects with ≥ 50% reduction from BL (MADRS) ([1]; Group PA, 1 week, study Day 22): 42.9% | Mean % reduction (MADRS) ([1]; Group PA, 1 week, study Day 22): −40.6% | Mean change from baseline (MADRS) ([1]; Group PA, 2 weeks from active dose, study Day 29): −10.8 | % of subjects with a MADRS score ≤ 10 [1, 13]: 31.3% | % of subjects with ≥ 50% reduction from BL (MADRS) [1, 13]: 43.8% | Mean % reduction (MADRS) [1, 13]: −36.7% | difference in mean total MADRS score, statistical analysis ([1]; Group PA, all open-label study timepoints, p<0.05): statistically significant difference | average improvement on the MADRS score [1, 14]: −7.5 | average percent reduction from baseline (MADRS) [1, 14]: −18.4% | Self-Reported Depression (BDI CFB) ([2]; Active, blinded phase, Day 15, p = 0.002 active vs. placebo): −17.4 | Self-Reported Depression (BDI CFB) [2, 15]: −19.7 | Anxiety (STAI-T CFB) ([3]; Active, blinded phase, Day 15, p = 0.03 active vs. placebo): −11.0 | Anxiety (STAI-T CFB) ([3]; Group PA, open label phase, Day 105 (12-weeks following the open label dose)): −14.2 | Wellbeing (WEMWBS CFB) ([4]; Active, blinded phase, Day 15 (two-weeks following blinded dose)): 10.1 | Wellbeing (WEMWBS CFB) [4, 15]: 9.8 | answer to 'Do you wish you had not gone through that experience?' (tolerability) (healthy adults [5]): no | mean CEQ score (healthy adults [6]): 0.172 | mean CEQ score ([7]; Group A): 0.360 | mean CEQ score ([7]; Group PA): 0.350 | drug related serious adverse events [8]: no drug related serious adverse events

CN(C)CCc1c[nH]c2ccccc12 [DMT, 2-(1H-indol-3-yl)-N,N-dimethylethanamine]
improvement on the MADRS scale approximated from HAMD-17 change [9]: ~−3.9 | perceived duration of the psychedelic experience (healthy participants): approximately 25 minutes | mean change in HAMD-17 scores [10]: −4.5 | tolerability score (0-100, 0=intolerable, 100=well tolerated) [11]: greater than 70 | mean score to 'how likely are you to use this drug?' (scale 0 to 100) [12]: 22.44
